Test results from US9029546B2, “Pyrazolopyridine kinase inhibitors” (Vertex Pharmaceuticals Incorporated, priority 2008, dated 2015).

Experiments:
[1] = biological target: PKC Delta (Homo sapiens, UniProt Q05655); test: PKC delta coupled-enzyme kinase assay (NADH consumption); type: biochemical; details: 240 μM ATP, 30° C.
Protocol: [The source words this procedure for another target and reports this target under the same test.] (§1) An assay buffer solution was prepared which consisted of 100 mM HEPES (pH 7.5), 10 mM MgCl2, 25 mM NaCl, 0.1 mM EDTA and 0.01% Brij. An enzyme buffer containing reagents to final assay concentrations of 0.00001% Triton X-100, 200 μg/mL Phosphatidylserine, 20 μg/mL Diacylglycerol, 360 μM NADH, 3 mM phosphoenolpyruvate, 70 μg/mL pyruvate kinase, 24 μg/mL lactate dehydrogenase, 2 mM DTT, 100 μM substrate peptide (ERMRPRKRQGSVRRRV (SEQ ID NO: 1)) and 18 nM PKC theta kinase was prepared in assay buffer. To 60 μL of this enzyme buffer, in a 384 well plate, was added 2 μL of VRT stock solution in DMSO. The mixture was allowed to equilibrate for 10 mins at 30° C. The enzyme reaction was initiated by the addition of 5 μL stock ATP solution prepared in assay buffer to a final assay concentration of 240 μM. Initial rate data was determined from the rate of change of absorbance at 340 nm (corresponding to stoichiometric consumption of NADH) using a Molecular Devices Spectramax plate reader (Sunnyvale, Calif.) over 15 mins at 30° C. For each Ki determination 12 data points covering the VRT concentration range of 0-20 μM were obtained in duplicate (DMSO stocks were prepared from an initial 10 mM VRT stock with subsequent 1:2 serial dilutions). Ki values were calculated from initial rate data by non-linear regression using the Prism software package (Prism 4.0a, Graphpad Software, San Diego, Calif.).

[2] = biological target: PKC theta kinase (Homo sapiens, UniProt Q04759); test: PKC theta coupled-enzyme kinase assay (NADH consumption); type: biochemical; details: 240 μM ATP, 30° C.
Protocol: as §1

Chain of PKC Delta (Q05655 whole entry): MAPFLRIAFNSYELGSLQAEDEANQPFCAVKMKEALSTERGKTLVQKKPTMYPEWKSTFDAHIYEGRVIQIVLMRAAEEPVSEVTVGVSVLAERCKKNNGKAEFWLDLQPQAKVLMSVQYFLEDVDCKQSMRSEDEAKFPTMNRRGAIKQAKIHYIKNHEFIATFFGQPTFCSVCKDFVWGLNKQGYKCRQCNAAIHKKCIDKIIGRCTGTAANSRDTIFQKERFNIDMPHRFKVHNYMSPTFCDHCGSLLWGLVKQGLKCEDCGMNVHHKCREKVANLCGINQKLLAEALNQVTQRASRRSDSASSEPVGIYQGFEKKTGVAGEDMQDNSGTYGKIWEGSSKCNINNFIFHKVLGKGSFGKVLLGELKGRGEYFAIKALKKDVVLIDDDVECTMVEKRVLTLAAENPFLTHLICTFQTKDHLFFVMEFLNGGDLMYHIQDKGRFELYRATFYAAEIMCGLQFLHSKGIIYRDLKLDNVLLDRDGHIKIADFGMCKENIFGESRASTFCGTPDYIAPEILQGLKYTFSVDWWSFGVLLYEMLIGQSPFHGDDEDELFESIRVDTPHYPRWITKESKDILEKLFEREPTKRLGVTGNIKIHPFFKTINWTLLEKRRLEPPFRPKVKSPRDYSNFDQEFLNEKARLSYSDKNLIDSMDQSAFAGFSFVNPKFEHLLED
Chain of PKC theta kinase (Q04759 whole entry): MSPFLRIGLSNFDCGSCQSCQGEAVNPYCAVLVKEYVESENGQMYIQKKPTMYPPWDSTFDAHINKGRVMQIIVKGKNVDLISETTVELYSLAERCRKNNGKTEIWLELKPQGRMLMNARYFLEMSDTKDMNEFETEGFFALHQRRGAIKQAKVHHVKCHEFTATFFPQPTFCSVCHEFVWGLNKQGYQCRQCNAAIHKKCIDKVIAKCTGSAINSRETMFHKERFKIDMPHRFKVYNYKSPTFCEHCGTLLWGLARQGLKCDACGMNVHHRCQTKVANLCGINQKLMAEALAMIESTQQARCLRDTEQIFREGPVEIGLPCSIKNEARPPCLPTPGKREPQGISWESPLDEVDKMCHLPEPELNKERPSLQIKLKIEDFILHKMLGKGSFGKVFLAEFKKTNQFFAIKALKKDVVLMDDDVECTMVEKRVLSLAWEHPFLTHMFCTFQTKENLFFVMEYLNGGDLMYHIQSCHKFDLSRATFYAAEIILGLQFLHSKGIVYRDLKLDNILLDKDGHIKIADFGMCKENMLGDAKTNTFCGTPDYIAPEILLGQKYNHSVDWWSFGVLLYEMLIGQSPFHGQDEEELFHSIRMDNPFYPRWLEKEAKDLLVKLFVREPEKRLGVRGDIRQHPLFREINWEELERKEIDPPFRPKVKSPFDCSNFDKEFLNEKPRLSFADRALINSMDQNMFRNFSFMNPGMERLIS

Row | Structure (SMILES) | Ki [1] [nM] | Ki [2] [nM]
1 | c1cc(NC2CCNCC2)nc(-c2n[nH]c3ncccc23)c1 [Compound 18] | < 50 | < 50
2 | CNCCN(C)c1cccc(-c2n[nH]c3ncccc23)n1 [Compound 5] | < 2800 | < 2800
3 | NCC1CCCC(CNc2ccc(C(F)(F)F)c(-c3n[nH]c4ncccc34)n2)C1 (stereo not drawn) [Compound 34] | > 700 | > 700
4 | CC(C)(CN)CNc1ccc(C(F)(F)F)c(-c2n[nH]c3ncccc23)n1 [Compound 33] | < 500 | < 500
5 | CN1CCCC(COc2ccc(C(F)(F)F)c(-c3n[nH]c4ncccc34)n2)C1 (stereo not drawn) [Compound 55] | > 700 | > 700
6 | CCC(O)CNc1ccc(C(F)(F)F)c(-c2n[nH]c3ncccc23)n1 (stereo not drawn) [Compound 83] | > 700 | > 700
7 | CC(C)(N)CNc1cccc(-c2n[nH]c3ncccc23)n1 [Compound 1, N1-(6-(1H-pyrazolo[3,4-b]pyridin-3-yl)pyridin-2-yl)-2-methylpropane-1,2-diamine] | < 50 | < 50
8 | CC(C)CC(O)CNc1ccc(C(F)(F)F)c(-c2n[nH]c3ncccc23)n1 (stereo not drawn) [Compound 15] | > 700 | > 700
9 | FC(F)(F)c1ccc(NC2CN3CCC2CC3)nc1-c1n[nH]c2ncccc12 (stereo not drawn) [Compound 71] | > 700 | > 700
10 | NCc1ccc(Nc2ccc(C(F)(F)F)c(-c3n[nH]c4ncccc34)n2)cc1 [Compound 48] | > 700 | > 700
11 | CCN1CCC(Oc2ccc(C(F)(F)F)c(-c3n[nH]c4ncccc34)n2)C1 (stereo not drawn) [Compound 56] | > 700 | > 700
12 | O[C@H]1CC[C@H](Nc2ccc(C(F)(F)F)c(-c3n[nH]c4ncccc34)n2)CC1 [Compound 81] | > 700 | > 700
13 | CC(C)CC1(CNc2ccc(C(F)(F)F)c(-c3n[nH]c4ncccc34)n2)CNC1 [Compound 67] | < 50 | < 50
14 | CC(CO)Nc1ccc(C(F)(F)F)c(-c2n[nH]c3ncccc23)n1 (stereo not drawn) [Compound 73] | > 700 | > 700
15 | FC(F)(F)c1ccc(NCC2CCCCN2)nc1-c1n[nH]c2ncccc12 (stereo not drawn) [Compound 32] | > 700 | > 700
16 | NC(COc1ccc(C(F)(F)F)c(-c2n[nH]c3ncccc23)n1)c1ccccc1 (stereo not drawn) [Compound 37] | < 500 | < 500
17 | NC1CCCC(Nc2cccc(-c3n[nH]c4ncccc34)n2)C1 (stereo not drawn) [Compound 61] | < 50 | < 50
18 | Fc1ccc(NC2CNC2)nc1-c1n[nH]c2ncccc12 [Compound 64] | > 700 | > 700
19 | NC1CCC(CNc2cccc(-c3n[nH]c4ncccc34)n2)CC1 (stereo not drawn) [Compound 13, N-((4-aminocyclohexyl)methyl)-6-(1H-pyrazolo[3,4-b]pyridin-3-yl)pyridin-2-amine] | < 500 | < 500
20 | c1cc(NCC2CCNC2)nc(-c2n[nH]c3ncccc23)c1 (stereo not drawn) [Compound 22] | < 500 | < 500
21 | CC[C@H](CO)Nc1ccc(C(F)(F)F)c(-c2n[nH]c3ncccc23)n1 [Compound 86] | > 700 | > 700

Row | Structure (SMILES) | Ki [1] [nM] | Ki [2] [nM]
22 | CCC(CO)Nc1ccc(C(F)(F)F)c(-c2n[nH]c3ncccc23)n1 (stereo not drawn) [Compound 80] | > 700 | > 700
23 | NC(=O)c1ccccc1Oc1ccc(C(F)(F)F)c(-c2n[nH]c3ncccc23)n1 [Compound 41] | > 700 | > 700
24 | CN(CCO)c1ccc(C(F)(F)F)c(-c2n[nH]c3ncccc23)n1 [Compound 58] | > 700 | > 700
25 | OCCNc1cccc(-c2n[nH]c3ncccc23)n1 [Compound 8] | > 700 | > 700
26 | Nc1cc(Cl)cc(Nc2ccc(C(F)(F)F)c(-c3n[nH]c4ncccc34)n2)c1 [Compound 70] | < 500 | < 500
27 | CC(C)(CN)CNc1cccc(-c2n[nH]c3ncccc23)n1 [Compound 10] | < 500 | < 500
28 | FC(F)(F)c1ccc(OC[C@@H]2CCCN2)nc1-c1n[nH]c2ncccc12 [Compound 51] | > 700 | > 700
29 | NC(=O)c1ccsc1Nc1ccc(C(F)(F)F)c(-c2n[nH]c3ncccc23)n1 [Compound 50] | > 700 | > 700
30 | OC1CCCCC1Nc1ccc(C(F)(F)F)c(-c2n[nH]c3ncccc23)n1 (stereo not drawn) [Compound 84] | > 700 | > 700
31 | FC(F)(F)c1ccc(NC2CNC2)nc1-c1n[nH]c2ncccc12 [Compound 63] | > 700 | > 700
32 | NC1CCCC(Nc2ccc(C(F)(F)F)c(-c3n[nH]c4ncccc34)n2)C1 (stereo not drawn) [Compound 30] | < 500 | < 500
33 | c1cc(NC2CCNC2)nc(-c2n[nH]c3ncccc23)c1 (stereo not drawn) [Compound 6] | < 500 | < 500
34 | FC(F)(F)c1ccc(OCC2CCCNC2)nc1-c1n[nH]c2ncccc12 (stereo not drawn) [Compound 46] | > 700 | > 700
35 | O[C@H](CNc1cccc(-c2n[nH]c3ncccc23)n1)c1ccccc1 [Compound 7] | > 700 | > 700
36 | CC(N)(CO)COc1ccc(C(F)(F)F)c(-c2n[nH]c3ncccc23)n1 (stereo not drawn) [Compound 57] | > 700 | > 700
37 | NCCCNc1cccc(-c2n[nH]c3ncccc23)n1 [Compound 2] | < 500 | < 500
38 | CN(C)C(C)(C)COc1ccc(C(F)(F)F)c(-c2n[nH]c3ncccc23)n1 [Compound 52] | > 700 | > 700
39 | N#CCCOc1ccc(C(F)(F)F)c(-c2n[nH]c3ncccc23)n1 [Compound 45] | > 700 | > 700
40 | NCC1CCC(CNc2cccc(-c3n[nH]c4ncccc34)n2)CC1 (stereo not drawn) [Compound 4] | < 500 | < 500
41 | FC(F)(F)c1ccc(NC2CCNCC2)nc1-c1n[nH]c2ncccc12 [Compound 40] | < 2800 | < 2800
42 | NCC(CNc1cccc(-c2n[nH]c3ncccc23)n1)c1ccccc1 (stereo not drawn) [Compound 9] | < 50 | < 50

Row | Structure (SMILES) | Ki [1] [nM] | Ki [2] [nM]
43 | OC[C@H](Nc1ccc(C(F)(F)F)c(-c2n[nH]c3ncccc23)n1)c1ccccc1 [Compound 79] | < 500 | < 500
44 | NC1CCC(CNc2ccc(C(F)(F)F)c(-c3n[nH]c4ncccc34)n2)CC1 (stereo not drawn) [Compound 25, N-((4-aminocyclohexyl)methyl)-6-(1H-pyrazolo[3,4-b]pyridin-3-yl)-5-(trifluoromethyl)pyridin-2-amine] | < 500 | < 500
45 | CN(CCC#N)c1ccc(C(F)(F)F)c(-c2n[nH]c3ncccc23)n1 [Compound 75] | < 500 | < 500
46 | NCC1CCC(CNc2ccc(C(F)(F)F)c(-c3n[nH]c4ncccc34)n2)CC1 (stereo not drawn) [Compound 24] | < 500 | < 500
47 | c1cc(NCC2CCNCC2)nc(-c2n[nH]c3ncccc23)c1 [Compound 14] | < 500 | < 500
48 | N#CCCNc1ccc(C(F)(F)F)c(-c2n[nH]c3ncccc23)n1 [Compound 42] | > 700 | > 700
49 | CC(C)C[C@@H](N)COc1ccc(C(F)(F)F)c(-c2n[nH]c3ncccc23)n1 [Compound 39] | > 700 | > 700
50 | N#CCNc1ccc(C(F)(F)F)c(-c2n[nH]c3ncccc23)n1 [Compound 62] | > 700 | > 700
51 | CCN1CCCC(Oc2ccc(C(F)(F)F)c(-c3n[nH]c4ncccc34)n2)C1 (stereo not drawn) [Compound 69] | > 700 | > 700
52 | CCC(CN)(CNc1ccc(C(F)(F)F)c(-c2n[nH]c3ncccc23)n1)c1ccccc1 (stereo not drawn) [Compound 65] | < 500 | < 500
53 | CC(C)C[C@@H](CN)Nc1cccc(-c2n[nH]c3ncccc23)n1 [Compound 17] | > 700 | > 700
54 | CN(CC#N)c1ccc(C(F)(F)F)c(-c2n[nH]c3ncccc23)n1 [Compound 44] | < 500 | < 500
55 | OC1(CNc2ccc(C(F)(F)F)c(-c3n[nH]c4ncccc34)n2)CCCCC1 [Compound 47] | < 500 | < 500
56 | FC(F)(F)c1ccc(OC[C@@H]2CCCN3CCCC[C@@H]23)nc1-c1n[nH]c2ncccc12 [Compound 74] | > 700 | > 700
57 | FC(F)(F)c1ccc(NCC2CNC2)nc1-c1n[nH]c2ncccc12 [Compound 66] | > 700 | > 700
58 | FC(F)(F)c1ccc(NCC2CCNCC2)nc1-c1n[nH]c2ncccc12 [Compound 27] | > 700 | > 700
59 | c1cc(NCC2CCCN2)nc(-c2n[nH]c3ncccc23)c1 (stereo not drawn) [Compound 20] | > 700 | > 700
60 | c1cc(NCC2CCCCN2)nc(-c2n[nH]c3ncccc23)c1 (stereo not drawn) [Compound 23] | < 2800 | < 2800
61 | CC(C)CC(O)CNc1cccc(-c2n[nH]c3ncccc23)n1 (stereo not drawn) [Compound 21] | > 700 | > 700
62 | O[C@H](CNc1ccc(C(F)(F)F)c(-c2n[nH]c3ncccc23)n1)c1ccccc1 [Compound 19] | < 500 | < 500
63 | OC[C@H](Cc1ccccc1)Nc1ccc(C(F)(F)F)c(-c2n[nH]c3ncccc23)n1 [Compound 77] | > 700 | > 700
